Literature values as cited in patent US20250066691A1, “SOLVENT-BASED DETERGENT COMPOSITIONS AND METHODS FOR HYDROPHOBIC SOIL REMOVAL” (ECOLAB USA INC., priority 2023, published 2025).
Where a name gives a salt, the structure may show the parent alone.

Settings: obtained from PubChem

With `CCCCCCCC(=O)O` [Octanoic acid] as the molecule, how does the “Topological Polar Surface Area (Å^2)” value read?
The value was 37.3 Å^2.

Which LogP does the source give for `CC(O)COc1ccccc1` (stereo not shown) [Propylene glycol phenyl ether] here?
Its LogP is 1.7.

What about the “Topological Polar Surface Area (Å^2)” value of the same molecule?
The value was 38.7 Å^2.

For `CCCCOC(C)COC(C)COC(C)CO` (stereo not shown) [Tripropylene glycol butyl ether], which LogP is on record?
Its LogP is 2.9.

And the “Topological Polar Surface Area (Å^2)” value?
The value was 47.9 Å^2.

For `Cc1ccccc1` [Toluene], which “Topological Polar Surface Area (Å^2)” value is on record?
The value was 0 Å^2.

Which LogP does the source give for `CCCCCCCCCCCCO` [Dodecanol (Lauryl Alcohol), Dodecanol] here?
Its LogP is 5.1.

What about the “Topological Polar Surface Area (Å^2)” value of the same molecule?
The value was 20.2 Å^2.

For `CC(=O)OCC(COC(C)=O)OC(C)=O` [Glycerol Triacetate], which LogP is on record?
Its LogP is 0.2.

And the “Topological Polar Surface Area (Å^2)” value?
Its value is 78.9 Å^2.

Which results are given for `CCCCC(CC)COCCO` (stereo not shown) [2-2(2-Ethylhexyloxy)ethanol]?
LogP: 2.5; Topological Polar Surface Area (Å^2): 29.5 Å^2

Which results are given for `CCCCC(CC)COC(=O)[C@H](C)O` (stereo partly drawn) [2-Ethylhexyl Lactate, 2-Ethylhexyl L-Lactate]?
LogP: 3; Topological Polar Surface Area (Å^2): 46.5 Å^2

Which LogP does the source give for `CCOC(=O)C(C)O` (stereo not shown) [Ethyl Lactate] here?
Its LogP is 0.2.

What about the “Topological Polar Surface Area (Å^2)” value of the same molecule?
The value was 46.5 Å^2.

For `CCCCCCO` [Hexanol], which “Topological Polar Surface Area (Å^2)” value is on record?
Its value is 20.2 Å^2.

With `CC(C)COC(=O)CCCCC(=O)OCC(C)C` [Diisobutyl Adipate] as the molecule, how does the LogP read?
Its LogP is 3.2.

What about the “Topological Polar Surface Area (Å^2)” value of the same molecule?
The value was 52.6 Å^2.

With `CCCCCCOCCOCCO` [Diethylene glycol monohexyl ether] as the molecule, how does the “Topological Polar Surface Area (Å^2)” value read?
The value was 38.7 Å^2.

With `OCc1ccccc1` [Benzyl Alcohol] as the molecule, how does the “Topological Polar Surface Area (Å^2)” value read?
The value was 20.2 Å^2.

Which LogP does the source give for `CCOC(=O)CC(O)(CC(=O)OCC)C(=O)OCC` [Triethyl Citrate] here?
Its LogP is 0.1.

And the “Topological Polar Surface Area (Å^2)” value?
Its value is 99.1 Å^2.

For `C=C(C)[C@H]1CC=C(C)CC1` [Limonene], which LogP is on record?
Its LogP is 3.4.

What about the “Topological Polar Surface Area (Å^2)” value of the same molecule?
Its value is 0 Å^2.
